According to patent US20140221282A1, “LONG DURATION DUAL HORMONE CONJUGATES” (priority 2011, published 2014):
Ends that are not written are not given here. Y‑shaped‑mPEG40KD = Y-shaped methoxy-PEG of 40 kDa attached to the Lys side chain; mPEG40KD = methoxy-PEG of 40 kDa

What was measured:
[1] = target: amylin receptor; test: Amylin receptor binding assay, rat nucleus accumbens membranes; conditions: 125I-rat amylin displacement
Text: Dried glass fiber plates were combined with scintillant and counted on a multi-well Perkin Elmer scintillation counter, as well known in the art.

[2] = Food intake in lean rats; assay type: in vivo; conditions: for food intake: SC once weekly injection 125 nmol/kg
Procedure: A variety of food intake assays are available to one of skill in the art. For example, in the so-called “home cage model” of food intake, subjects (e.g., rats) are maintained in their home cage, and food intake along with total weight of the subject is measured following injection of test compound. In the so-called “feeding patterns model” of food intake assay, subjects (e.g., rats) are habituated to a feeding chamber and to injections prior to testing. After test compound administration, the subjects are immediately placed into the feeding chamber, and food intake is automatically determined as a function of time (e.g., 1-min intervals). For both tests, the food is standard chow or any of a variety of chows (e.g., high fat) known in the art. In the so-called “mouse food intake” assay, a test compound may be tested for appetite suppression, or for an effect on body weight gain in diet-induced obesity (DIO) mice. In a typical mouse food intake assay, female NIH/Swiss mice (8-24 weeks old) are group housed with a 12:12 hour light:dark cycle with lights on at 0600. Water and a standard pelleted mouse chow diet are available ad libitum, except as noted. Animals are fasted starting at approximately 1500 hrs, I day prior to experiment. The morning of the experiment, animals are divided into experimental groups. In a typical study, n=4 cages with 3 mice/cage. At time=0 min, all animals are given an intraperitoneal injection of vehicle or compound, typically in an amount ranging from about 10 nmol/kg to 75 nmol/kg, and immediately given a pre-weighed amount (10-15 g) of the standard chow. Food is removed and weighed at various times, typically 30, 60, and 120 minutes, to determine the amount of food consumed. See e.g., Morley et al., 1994, Am. J. Physiol. 267:R178-R184). Food intake is calculated by subtracting the weight of the food remaining at the e.g. 30, 60, 120, 180 and/or 240 minute time point, from the weight of the food provided initially at time=0. Significant treatment effects are identified by ANOVA (p<0.05). Where a significant difference exists, test means are compared to the control mean using Dunnett's test (Prism v. 2.01, GraphPad Software Inc., San Diego, Calif.). For any test described herein, administration of test compound can be by any means, including injection (e.g., subcutaneous, intraperitoneal, and the like), oral, or other methods of administration known in the art.
FIGS. 13A-13B provide the result of a multi-day food intake assays. The effect on 24-hour food intake was investigated for Cmpds 69, 73, 72, 70, and 74, using vehicle as control. […] In the case of some of the compounds, weight loss was still evident even after one week. […]
As shown in FIGS. 19A-19B, most compounds in the tested series provided weight loss which was still evident after 7-days.

[3] = Body weight change in lean rats; assay type: in vivo; conditions: for body weight reduction: SC 125 nmol/kg (FIG. 17)
Procedure: Lean rats were administered a subcutaneous (SC) once weekly injection of test compound (125 nmol/kg) or vehicle. FIGS. 13A-13B provide the result of a multi-day food intake assays. The effect on 24-hour food intake was investigated for Cmpds 69, 73, 72, 70, and 74, using vehicle as control. […] In the case of some of the compounds, weight loss was still evident even after one week.
The effect on 24-hour food intake, as judged with SC injection (125 nmol/kg), was investigated for Cmpds 74, 76, 77 and 78.
Test animals (lean rats) were injected SC at 125 nmol/kg, and body weight corrected for vehicle (FIG. 19A) and cumulative food intake (FIG. 19B) were determined for 7-days. As shown in FIGS. 19A-19B, most compounds in the tested series provided weight loss which was still evident after 7-days.

[4] = Body weight change in lean rats; assay type: in vivo; conditions: for body weight reduction: Cmpd 77 31.25-250 nmol/kg, Cmpd 79 250 nmol/kg (FIG. 18)
[5] = Body weight change in diet induced obese (DIO) rats; assay type: in vivo, DIO Sprague Dawley rats; conditions: SC once a week 125 nmol/kg, four weeks
Procedure: The effect of Cmpd 14 on body weight was examined in male outbred diet-induced obese Sprague Dawley rats. Percent vehicle-corrected change in body weight was measured relative to PEGylated parent peptides alone and in combination. […]
Specifically, in this experiment the duration of action on food intake and change in body weight was compared for compounds having a single active peptide element (Cmpd 6 and Cmpd 7) relative to the combined dosing of these compounds, and further relative to LDDHC Cmpd 14, having the active peptide elements of Cmpds 6-7 separated by a 40 kDa PEG water-soluble polymeric spacer. […] In the combination dosing, each of Cmpd 6 and Cmpd 7 was administered at 32 nmol/kg. The test subjects were DIO rats (n=6/group, body weight baseline=478 g). […]
Plasma drug levels were determined by ELISA assay.
[…] The baseline body weight was 505 gm.

[6] = SC once weekly injection 125 nmol/kg
[7] = Cmpd 77 31.25-250 nmol/kg, Cmpd 79 250 nmol/kg (FIG. 18)

Compound	IC50 [1] [nM]	food intake [2]	body weight [3, 6]	also measured
CNTATCATQRLANFLVRSSNNLGPVLPPTNVGSNTY [Cmpd 50, [des-Lys^1]-Cmpd 49]	0.42			
[K^26(mPEG40KD)]-Cmpd 54 (CNTATCATQRLANFLVRSSNNLGPK(mPEG40KD)LPPTNVGSNTY-NH2; cysteine pairing not given here) [Cmpd 72]		efficacious	efficacious	
[K^26(Y-shaped-mPEG40KD)]-Cmpd 53 (KCNTATCATQRLANFLVRSSNNLGPK(Y‑shaped‑mPEG40KD)LPPTNVGSNTY-NH2; cysteine pairing not given here) [Cmpd 75]	470			body weight ([3]; single SC dose, y-branched vs linear PEG): not as efficacious as the linear pegylated version, Cmpd 71
[K^31(mPEG40KD)]-Cmpd 61 (CNTATCATQRLANFLVHSSNNFGPILPPTK(mPEG40KD)VGSNTY-NH2; cysteine pairing not given here) [Cmpd 78]				food intake reduction ([2]; SC 125 nmol/kg (FIG. 17)): at least as efficacious as Cmpd 74; body weight reduction [3]: at least as efficacious as Cmpd 74
[K^26(mPEG40KD)]-Cmpd 60 (CNTATCATQRLANFLVHSSNNFGPK(mPEG40KD)LPPTNVGSNTY-NH2; cysteine pairing not given here) [Cmpd 77]				body weight reduction [4]: dose dependent efficacy; food intake reduction [2, 7]: dose dependent efficacy; food intake reduction ([2]; SC 125 nmol/kg (FIG. 17)): at least as efficacious as Cmpd 74; body weight reduction [3]: at least as efficacious as Cmpd 74
[K^21(mPEG40KD)]-Cmpd 52 (CNTATCATQRLANFLVRSSK(mPEG 40 kDa)NLGPVLPPTNVGSNTY-NH2; cysteine pairing not given here) [Cmpd 70]		efficacious	efficacious	
[K^31(mPEG40KD)]-Cmpd 56 (CNTATCATQRLANFLVRSSNNLGPVLPPTK(mPEG40KD)VGSNTY-NH2; cysteine pairing not given here) [Cmpd 74]		efficacious	efficacious	
[K^26(Y-shaped-mPEG40KD)]-Cmpd 60 (CNTATCATQRLANFLVHSSNNFGPK(Y‑shaped‑mPEG40KD)LPPTNVGSNTY-NH2; cysteine pairing not given here) [Cmpd 79]				body weight reduction [4]: not as efficacious as the linear pegylated version, Cmpd 77; food intake reduction [2, 7]: not as efficacious as the linear pegylated version, Cmpd 77
[K^31(mPEG40KD)]-Cmpd 55 (KCNTATCATQRLANFLVRSSNNLGPVLPPTK(mPEG40KD)VGSNTY-NH2; cysteine pairing not given here) [Cmpd 73]		efficacious	efficacious	
mPEG40KD-Cmpd 50 (CNTATCATQRLANFLVRSSNNLGPVLPPTNVGSNTY-NH2; cysteine pairing not given here; also: mPEG40KD attached, site not given here) [Cmpd 68]	78			
[K^26(mPEG40KD)]-Cmpd 53 (KCNTATCATQRLANFLVRSSNNLGPK(mPEG40KD)LPPTNVGSNTY-NH2; cysteine pairing not given here) [Cmpd 71]	66			body weight, dose response ([4]; 12-250 nmol/kg): reduced body weight and food intake in a dose dependent fashion; food intake, dose response ([2]; 12-250 nmol/kg): reduced body weight and food intake in a dose dependent fashion; weight loss [5]: not as efficacious as infused Cmpd 49
[K^21(mPEG40KD)]-Cmpd 51 (KCNTATCATQRLANFLVRSSK(mPEG 40 kDa)NLGPVLPPTNVGSNTY-NH2; cysteine pairing not given here) [Cmpd 69]		efficacious	efficacious	
[K^21(mPEG40KD)]-Cmpd 59 (CNTATCATQRLANFLVHSSK(mPEG 40 kDa)NFGPILPPTNVGSNTY-NH2; cysteine pairing not given here) [Cmpd 76]				food intake reduction ([2]; SC 125 nmol/kg (FIG. 17)): at least as efficacious as Cmpd 74; body weight reduction [3]: at least as efficacious as Cmpd 74
CC(C)C[C@H](NC(=O)[C@H](CC(N)=O)NC(=O)[C@H](CC(N)=O)NC(=O)[C@H](CO)NC(=O)[C@H](CO)NC(=O)[C@H](CCCNC(=N)N)NC(=O)[C@@H](NC(=O)[C@H](CC(C)C)NC(=O)[C@H](Cc1ccccc1)NC(=O)[C@H](CC(N)=O)NC(=O)[C@H](C)NC(=O)[C@H](CC(C)C)NC(=O)[C@H](CCCNC(=N)N)NC(=O)[C@H](CCC(N)=O)NC(=O)[C@@H](NC(=O)[C@H](C)NC(=O)[C@@H]1CSSC[C@H](NC(=O)[C@@H](N)CCCCN)C(=O)N[C@@H](CC(N)=O)C(=O)N[C@@H]([C@@H](C)O)C(=O)N[C@@H](C)C(=O)N[C@@H]([C@@H](C)O)C(=O)N1)[C@@H](C)O)C(C)C)C(=O)NCC(=O)N1CCC[C@H]1C(=O)N[C@H](C(=O)N[C@@H](CC(C)C)C(=O)N1CCC[C@H]1C(=O)N1CCC[C@H]1C(=O)N[C@H](C(=O)N[C@@H](CC(N)=O)C(=O)N[C@H](C(=O)NCC(=O)N[C@@H](CO)C(=O)N[C@@H](CC(N)=O)C(=O)N[C@H](C(=O)N[C@@H](Cc1ccc(O)cc1)C(N)=O)[C@@H](C)O)C(C)C)[C@@H](C)O)C(C)C [Cmpd 49, reference compound]	0.1			
